The source of these data is US20250032581A1, “COMPOSITIONS AND ARTICLES COMPRISING AN ADNF POLYPEPTIDE” (RAMOT AT TEL-AVIV UNIVERSITY LTD., priority 2021, published 2025).

For test [1], the system named is Tyr mice. As to the kind of experiment: CatWalk gait analysis. In kind it is in vivo, mouse. Here is the method:
Animals—Animals were housed under a 12-hour light/dark cycle, with food and water ad-libitum. Mouse pups were subcutaneously administrated with NAP [having an amino acid sequence NAPVSIPQ (SEQ ID NO: 2), 25 μg NAP/1 ml saline] as described (8, 12). At 21 days of age mice were administered daily intranasal NAP in vehicle solution (“DD”—7.5 mg/ml of NaCl, 1.7 mg/ml of citric acid, 3 mg/ml of disodium phosphate dihydrate, and 0.2 mg/ml of 50% benzalkonium chloride solution) (0.5 μg NAP/5p1 DD) (8, 9, 12, and U.S. Pat. No. 10,912,819 to Gozes). These mice continued to behavioral analysis as described hereinbelow. The noninvasive intranasal route was chosen as these experiments required daily handling and administration. Age (weeks) of mice during behavioral experiments (mean±SEM) was as follows: Catwalk—9.23±0.15, grooming—10±0.15, social approach—10.5±0.12, odor-discrimination—12.12±0.13, hanging-wire—13±0.14, hotplate—13.18±0.13. Group size was determined following previous experiments (12). Pups were randomly allocated to either the NAP or DD group according to sex and genotype. All procedures involving animals were conducted under the supervision and approval of the institutional animal care and use committee of Tel Aviv University and the Israeli Ministry of Health.
Catwalk—Was performed as previously described (12).
Briefly, for ear twitch reflex, a cotton tip was gently brushed against the tip of the ear three times, between postnatal days 7-15 or until the pup responded correctly for two consecutive days. For air righting reflex, the pup was held up-side down and released ˜10.5 cm above the cage, containing 5 cm of shavings. The test was performed between postnatal days 8-21 or until the pup landed on the shavings with all four paws, for two consecutive days. For surface righting reflex, pups were placed on their backs on a level surface, the test was performed between postnatal days 1-13 until the pups was able to right itself with all four paws on the surface in under a second for two consecutive days. For eye opening, mice were observed daily until both eyes were open (eyelids separated completely). For auditory startle, the pup was placed on a level surface and the experimenter clapped loudly twice until a visible startle response was evident for 2 consecutive days. The test was performed between days 7-18. For cliff aversion, pups were placed on the edge of a small box (approx. 4 cm in height) with both paws protruding over the edge of the box. Pups were allowed 30 sec to avoid the cliff and move themselves backwards. Test was performed between day 1-14 until the pup avoided the cliff in under 30 sec for two consecutive days^9. For the rooting reflex, a cotton tip was gently brushed against the sides of the pup's mouth until the pup moved its head to the direction of the stroke. Both sides were tested twice. […] All tests were conducted between 10 AM-4 PM. For the first 5 postnatal days, each pup was put under a single 60-watt bulb during testing to assure the pups' warmth. • Novel object recognition: Briefly, the open field test was used for the first day of habituation since both tests are conducted in the same arena. The following day animals underwent another habituation to the arena (5 mins). As described, the test included two consecutive days of habituation and the experimental days which consisted of the three phases. […]

The subject of test [2] is Tyr mice. As to the kind of experiment: Ultrasonic vocalizations (USV) and syntax analysis of P8 pups (DeepSqueak). In kind it is in vivo, mouse. An excerpt:
The Intensity parameter is used to assess the effects of neuropathic pain, including mechanical allodynia. Max Contact Mean Intensity is the mean Intensity of a paw at Max Contact. Print length is the length (horizontal direction) of the complete print. The complete print is the sum of all contacts with the glass plate, as if the animal's paw would have been inked. Print width is the width (vertical direction) of the complete paw. Print area is the surface area of the complete print. Max Intensity is the maximum Intensity of the complete paw. Mean intensity is the mean Intensity of the complete paw. • USV: On P8, each pup was separated from the dam and placed in an empty cage for 6 minutes, in a quiet room and was recorded using the M500-384 USB Ultrasound Microphone (Petterson, Sweden). Pups were distinguished from one another using the tattoos listed above. After 6 minutes pups were reunited with its dam. Data were analyzed using DeepSqueak. Data were loaded onto DeepSqueak, frequencies between 40-70 kHz were analyzed using the mouse call network V2. Calls were denoised using post hoc denoising network. For syntax analysis, Syntax was classified using Wright K means network. Syntax transition probability charts were generated using DeepSqueak and Matlab. Further USV experiments were performed on P8 pups as previously described (12) with slight modifications.

The conditions of test [3]: adult patients; cited from earlier work.
The test system of test [4] is Shank3-Adnp-actin interactions. The experiment in a line: Actin co-immunoprecipitations from mouse brain extracts. An excerpt: De novo heterozygous mutations in ADNP reproduced the autistic ADNP syndrome. ADNP mutations impair microtubule (MT) function, essential for synaptic activity. The ADNP MT-associating fragment NAPVSIPQ (NAP) (SEQ ID NO 2) contains an MT end-binding protein interacting domain, SxIP (mimicking the active-peptide, SKIP, SEQ ID NO 21). The inventors hypothesized that not all ADNP mutations are similarly deleterious and that the NAPV portion of NAPVSIPQ is biologically active. Using the eukaryotic linear motif (ELM) resource, the inventors identified a Src homology 3 (SH3) domain-ligand association site in NAP responsible for controlling signaling pathways regulating the cytoskeleton, namely NAPVSIP (SEQ ID NO: 2). Altogether, the inventors mapped multiple SH3-binding sites in ADNP. […] Site-directed-mutagenesis, abolishing the p.Lys408Valfs*31 SH3-binding motif, produced MT toxicity. […] Lastly, SH3 and multiple ankyrin repeat domains protein 3 (SHANK3), a major autism gene product, interact with the cytoskeleton through an actin-binding motif to modify behavior.

As to `CC[C@H](C)[C@H](NC(=O)[C@H](CO)NC(=O)[C@@H](NC(=O)[C@@H]1CCCN1C(=O)[C@H](C)NC(=O)[C@@H](N)CC(N)=O)C(C)C)C(=O)N1CCC[C@H]1C(=O)N[C@@H](CCC(N)=O)C(=O)O` [NAP, NAPVSIPQ], in test [1] (WT mice, data not shown), the gait result is given as “No major NAP effect was observed in WT mice”. The “gait: intensity parameters” value in test [1] (female Tyr mice) is given as “significant NAP correction”. In test [1] (female Tyr mice), the “gait: swing speed and swing duration” value was “ameliorated by NAP”. Further, the “gait: front base of support” value in test [1] (male Tyr mice) is listed as “NAP correcting this phenotype in males”. Moreover, the “gait: print length and area” value in test [1] (male Tyr mice, daily intranasal NAP) is “significant NAP recovery”. In test [2] (Tyr female and male P8 pups), the “total USVs” value is reported as “no NAP effects”. The syntax result in test [2] (WT pups, data not shown) is on record as “minor varied impact on WT pups”. Besides, the “syntax transition probabilities, Xi square analysis Tyr vs. Tyr NAP” value in test [2] (females, p<0.001) is on record as “significant improvement with NAP treatment”; in test [2] (males, p=0.027), “same significant changes”. For the same compound, the “efficacy in clinical studies” value in test [3] was “enhancement of cognitive function and functional activities of daily living”. Moreover, the Shank3-Adnp-actin interactions result in test [4] is “NAP-mediated normalization of Shank3-Adnp-actin interactions”.
